In ChEMBL document CHEMBL1201862, “PubChem BioAssay data set” (2004):
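Each compound was tested at five concentrations against cells in 96-well plates for 48 hours. GI50 is the concentration that inhibits growth by half.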 Active and inactive are the calls of the source. No stated cut-off is given here; in the data, active = GI50 up to about 1.1 µM and inactive = higher.

Tests used:
Experiment in all cases: inhibition of tumour cell growth, NCI panel, 48 h
K562 = system: K562
MDA-MB-435 = system: MDA-MB-435
HCT-116 = system: HCT-116
MCF7 = system: MCF7
HCT-15 = system: HCT-15
EKVX = system: EKVX
KM12 = system: KM12
RXF 393 = system: RXF 393
SNB-75 = system: SNB-75
CCRF-CEM = system: CCRF-CEM
COLO 205 = system: COLO 205
SF-268 = system: SF-268
M14 = system: M14
TK-10 = system: TK-10
SK-OV-3 = system: SK-OV-3
MOLT-4 = system: MOLT-4
NCI-H226 = system: NCI-H226
OVCAR-4 = system: OVCAR-4
HOP-62 = system: HOP-62
SF-539 = system: SF-539

Structure (SMILES) | GI50 (K562) | GI50 (MDA-MB-435) | GI50 (HCT-116) | GI50 (MCF7) | GI50 (HCT-15) [µM] | GI50 (EKVX) | GI50 (KM12) | GI50 (RXF 393) | GI50 (SNB-75) | GI50 (CCRF-CEM) | GI50 (COLO 205) | GI50 (SF-268) | GI50 (M14) | GI50 (TK-10) | GI50 (SK-OV-3) | GI50 (MOLT-4) | GI50 (NCI-H226) | GI50 (OVCAR-4) | GI50 (HOP-62) | GI50 (SF-539)
C=C(C)[C@@H]1CC[C@@H](C)[C@](O)([C@@H]2C[C@@H]([C@H](COC(=O)c3ccccc3)OC(=O)c3ccccc3)OC2=O)C1 | > 100 µM (inactive) | > 100 µM (inactive) | > 100 µM (inactive) | > 100 µM (inactive) | > 100 | > 100 µM (inactive) | > 100 µM (inactive) | > 100 µM (inactive) | > 100 µM (inactive) | > 100 µM (inactive) | > 100 µM (inactive) | > 100 µM (inactive) | > 100 µM (inactive) | > 100 µM (inactive) | > 100 µM (inactive) | 28 µM (inactive) | > 100 µM (inactive) | 59.4 µM (inactive) | > 100 µM (inactive) | > 100 µM (inactive)
CCC1(C)C=Cc2c(cc(O)c3c(=O)c4ccccc4n(C)c23)O1 (stereo not given) | > 10 µM (inactive) | > 10 µM (inactive) | > 10 µM (inactive) | > 10 µM (inactive) | > 10 | > 10 µM (inactive) | > 10 µM (inactive) | > 10 µM (inactive) | > 10 µM (inactive) | > 10 µM (inactive) | > 10 µM (inactive) | > 10 µM (inactive) | > 10 µM (inactive) | > 10 µM (inactive) | > 10 µM (inactive) | > 10 µM (inactive) | > 10 µM (inactive) | > 10 µM (inactive) | > 10 µM (inactive) | > 10 µM (inactive)
COC(=O)C(/C(=N\O)C(=O)Nc1cccc(Cl)c1C)c1cnc2ccccc2n1 (stereo not given) | > 100 µM (inactive) | > 100 µM (inactive) | > 100 µM (inactive) | > 100 µM (inactive) | > 100 | > 100 µM (inactive) | > 100 µM (inactive) | 92.9 µM (inactive) | > 100 µM (inactive) | > 100 µM (inactive) | > 100 µM (inactive) | > 100 µM (inactive) | > 100 µM (inactive) | > 100 µM (inactive) | > 100 µM (inactive) | > 100 µM (inactive) | > 100 µM (inactive) | > 100 µM (inactive) | > 100 µM (inactive) | > 100 µM (inactive)
O=C(CC(C(=O)c1cccs1)c1ccccc1)c1ccccc1O (stereo not given) | 3.1 µM (inactive) | 3.1 µM (inactive) | 4.74 µM (inactive) | 9.86 µM (inactive) | 8 | 12.7 µM (inactive) | 20.9 µM (inactive) | 5.19 µM (inactive) | > 20.6 µM (inactive) | 2.55 µM (inactive) | > 50.7 µM (inactive) | 8.28 µM (inactive) | 4 µM (inactive) | > 41.1 µM (inactive) | 8.57 µM (inactive) | 7.08 µM (inactive) | > 57.7 µM (inactive) | 16.4 µM (inactive) | 18.2 µM (inactive) | 34.1 µM (inactive)
